Read-outs that look alike come from different tables or passages of the source.

Broadly, the Km is the substrate concentration at which the rate is half of its maximum.

Holding throughout (format): biochemical
Common to all, as to parameters: GG stays after cleavage) (N); made in house; host or cells: E. coli BL21(DE3)

Test [1] addresses T1, PaPepA (Pseudomonas aeruginosa, UniProt Q02RY8). The conditions noted are these: aa-pNA varied, 3 mM MnCl2, 100 nM PaPepA, pH 8.0, 25 °C. The method, then: (§1) A BMG Labtech POLARstar Omega plate reader was used for activity assays and kinetic studies involving amino acids conjugated to para-nitroaniline (pNA) (Sigma) or peptides as substrates. Assays were carried out at 25 °C in clear half-area 96-well plates (Greiner Bio-One). […] For kinetic assays investigating Leu-AMC as a substrate, a SpectraMax M2E was used. Reactions were carried out using black half-area 96-well plates with clear bottoms (Greiner Bio-One). Product formation was assessed by monitoring changes in fluorescence, with the excitation wavelength set at 341 nm and emission at 441 nm. The cutoff was 420 nm. PMT gain was set to medium, with six flashes per read. […] Calibration curves of pNA concentration vs absorbance and AMC vs fluorescence were constructed, and initial rate values were divided by the slope of these calibration curves to reveal the rate of product formation over time (Table S2).
(§2) For all assays excluding pH dependence curves, buffer conditions were as follows: 100 mM HEPES, 50 mM KCl, and pH 8.0. For assays carried out under pseudo-first-order conditions, one reaction component was fixed and in excess, while the other was varied. […] For assays involving variation of aa-pNA or aa-AMC, MnCl2 was added to a final concentration of 3 mM.

Test [2] deals with T1, PaPepA. Briefly: Metal activation of Leu-pNA cleavage (metal varied, Leu-pNA fixed). The conditions noted are these: with 2 mM Leu-pNA, pH 8.0. The method, then:
as §1, §2

For test [3], the target named is T1, PaPepA. Nature of the test: Pre-steady-state stopped-flow kinetics with global fit. The conditions noted are these: global fit. As for the experimental part: An Applied Photophysics SX20 stopped-flow spectrofluorimeter was used to perform kinetic measurements under pre-steady-state conditions. The instrument was equipped with a xenon lamp, a 5 μL mixing cell, and a circulating water bath to maintain constant temperature. All reactions were carried out in 100 mM HEPES (pH 8.0) and 50 mM KCl at 25 °C. Enzyme and metal ions were kept in one syringe, while the other substrate (Leu-pNA or Leu-AMC) was kept in the second syringe. The reaction was triggered by rapid mixing of 55 μL from each syringe. Three traces with 10,000 points per trace were collected per experiment.
For absorbance measurements, product formation was monitored by reading the pNA absorbance at 405 nm (5 mm path length). Multiple turnover rates were measured in the presence of saturating concentrations of both metal and Leu-pNA. PaPepA was present at 1 or 10 μM, MnCl2 was present at 3 mM, and Leu-pNA was present at 250 μM. For fluorescence measurements, a path length of 1 mm was used. Reactions were followed by monitoring the appearance of a 7-amino-4-methylcoumarin (AMC) fluorophore following PaPepA-catalyzed breakdown of Leu-AMC. An excitation wavelength of 341 nm was used with a 400 nm cutoff filter for the emission. Slits were 1 nm for excitation and 2 nm for emission.
Experiments under single turnover conditions monitored fluorescence change with a detector voltage of 300 V, 0.1 μM Leu-AMC, 1.5 mM MnCl2, and varying PaPepA (0.5, 1, 2, 4, 8, 16, or 32 μM). Experiments under multiple turnover conditions monitored fluorescence change with a detector voltage of 250 V, 50 μM Leu-AMC, 1.2 μM PaPepA and varying concentrations of MnCl2 (0.2, 0.4, 0.6, 1.2, 2.4, 6, 9, 12, 18, 24, 60, 120, 1200, or 3600 μM).
Calibration curves of known concentrations of AMC were performed at detector voltages of 250 and 300 V. STO and MTO curves were divided by the slope of these calibration curves to convert the change in fluorescence observed to the concentration of AMC produced.
Pre-steady-state data were imported into KinTek Global Explorer and fit to linear or single-exponential equations using the aFit function to obtain standard deviation estimates. A kinetic model with five steps was considered, and rate constants and outputs were fitted according to this model. Initial estimates for rate constants were based on kcat and KM values. The FitSpace Editor was employed to determine confidence intervals for each of the rate constants. More details including model fitted and parameters used are available in the Supporting Information.
Supporting information note 4: Kintek Global Explorer fitting of stopped flow data Both MTO and STO pre-steady-state data were fit according to the mode described in Figure 4A with scaling factors for each fluorescent species (EP and P) to account for differences in AMC fluorescence whilst in complex with PaPepA versus free in solution. Scaling factors were different across STO and MTO experiments as both were carried out using different detector voltages.
The model that best fitted acquired data was as below, where F is metal free enzyme, E1 is PaPepA with one Mn2+ ion, E is PepA with two Mn2+ ions, S is Leu- […]
For fitting, k1 and k-1 ratios were constrained (linked) based KD for Mn2+ binding as measured by ITC (12nM). Initially, k2 and k-2 were allowed to vary without constraints, and values best fitted as well as Fitspace lower and upper boundaries are reported in Table 2. The value for k1 was best fitted as diffusion limited, and therefore was fixed in further fitting cycles. The best fitted value for k-2 was high and unconstrained, and therefore also fixed at 1000 s-1 for further fitting cycles. k3, k-3, k4, and k5 were not constrained. Multiple iterations of fitting were performed, and best fit values recorded. k1, k2, k3, k-3, k4, and k5 were evaluated using FitSpace Explorer to generate confidence intervals for each of these rate constants. […]

In test [4] the target is T1, PaPepA. The conditions noted are these: labelled component varied. The text has this: Viscosity effects were studied by using sucrose as a viscogen. Relative viscosities for different concentrations of sucrose were taken from Bazelyansky et al.[27] Concentrations of viscogen were as follows: 14% sucrose, ηrel = 1.5; 24% sucrose, ηrel = 2.2; and 32% sucrose, ηrel = 2.9.
Viscosity effects were fit to the following equation, where kinetic parameter0 and kinetic parameterη are kcat or kcat/KM in the […] of viscogen, respectively, ηrel is the relative viscosity of the solution, and m is the slope. [drawing 4] 4
All measurements were performed in triplicate.

For test [5], the target named is T1, PaPepA. The conditions noted are these: 5 % PEG 8000, labelled component varied, other saturating; in 1/s.
In test [6] the target is T1, PaPepA. Nature of the test: Alcohol dehydrogenase peptide degradation assay (LC-MS). The conditions noted are these: MassPREP ADH digest, 100 nM PaPepA, 3 mM MnCl2, overnight. As for the experimental part:
A vial of MassPREP ADH digestion standard (Waters) was reconstituted in 200 μL of LC-MS grade water. Reaction mixtures were prepared by combining 25 μL of ADH solution, 3 mM MnCl2, and 100 nM PaPepA (final concentrations) in a total volume of 50 μL buffer (100 mM HEPES pH 8.0, 50 mM KCl). For control reactions, the addition of PaPepA was omitted. Samples and controls were each prepared in triplicate and incubated overnight, and reactions quenched with the addition of […] of 10% TCA. Following the addition of acid, PaPepA was added to control samples to a final concentration of 50 nM (equivalent to a concentration of enzyme in the reaction samples following acid quenching). Samples were concentrated to 20 μL. A 1 μL portion of this was diluted in 100 μL of LC-MS grade water. 10 μL was injected and analyzed on a SCIEX TripleTOF 5600+ mass spectrometer with an Eksigent 425 nanoLC configured in trap elute configuration. Each sample was loaded onto the trap (Waters ACQUITY M-Class symmetry column 180 μm × 20 mm) and washed with 0.05% TFA in water for 5 min at 5 μL/min. The trap was then switched in line with the Waters M-Class HSS1 analytical column, 75 μm × 150 mm, with a flow rate of 300 nL/min. Samples were eluted over 30 min using a linear gradient from 98% A (100% water 0.1% FA) 2% B (80% MeCN, […] 0.1% FA) to 60% A, 40% B linearly over 12 min, rising to 5% A, 95% B, before returning to 98% A to re-equilibrate. Eluate from the column was sprayed directly into the nanospray source of the mass spectrometer. MS data were collected from 400 to 1250 m/z as the survey scan, and under data-dependent acquisition (DDA) setting, the top 20 strongest peptides were selected for MS/MS using CID fragmentation. Peptide mass tolerance was 20 ppm on the MS and 0.1 Da on the MS/MS.
Identification and analysis of ADH peptides were performed using the Skyline open-access software package (version 22.2). Raw data were extracted using msConvert (ProteoWizard) and the data searched using Skyline against the ADH1 sequence from Saccharomyces cerevisiae (UniProt: P00330). The digestion enzyme was set as trypsin, allowing up to three missed cleavages. Searches encompassed peptides between 400 and 1250 m/z with a mass tolerance of 0.3 m/z. Carbamidomethyl was set as a fixed modification for cysteine residues. Data were searched for the protonated 1+, 2+, and 3+ charge states of each peptide.
Peaks were integrated, and areas were used to qualitatively assess differences in peptide abundances across PaPepA-digested samples and controls. Peptides present in control samples but absent in reactions (integrated area <1000) were classified as “digested”.

T1 sequence (Q02RY8 whole entry): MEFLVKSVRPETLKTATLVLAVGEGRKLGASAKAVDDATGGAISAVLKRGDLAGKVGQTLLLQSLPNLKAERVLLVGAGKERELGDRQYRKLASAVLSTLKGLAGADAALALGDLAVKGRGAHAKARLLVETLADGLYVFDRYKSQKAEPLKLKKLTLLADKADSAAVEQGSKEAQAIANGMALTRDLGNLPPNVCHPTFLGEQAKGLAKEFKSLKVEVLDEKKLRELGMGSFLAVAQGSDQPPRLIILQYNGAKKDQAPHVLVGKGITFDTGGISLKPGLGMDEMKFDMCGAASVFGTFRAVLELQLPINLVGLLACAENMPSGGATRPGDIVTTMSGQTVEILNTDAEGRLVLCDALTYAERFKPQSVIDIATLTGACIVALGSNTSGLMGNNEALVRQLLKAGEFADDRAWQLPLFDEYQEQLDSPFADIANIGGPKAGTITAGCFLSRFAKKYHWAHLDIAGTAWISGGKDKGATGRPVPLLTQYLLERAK

Turning to `C[C@H](N)C(=O)Nc1ccc([N+](=O)[O-])cc1` [Ala-pNA], in test [1], the Km was determined as 220 ± 30 µM and the kcat was determined as 0.037 ± 0.001 s^–1.

Regarding `[Co+2]` [Co^2+], in test [2], the KACT is given as 0.17 ± 0.01 mM, the kcat stood at 0.137 ± 0.002 s^–1 and the kcat/KACT came to 0.80 ± 0.06 s^–1mM^–1.

Consider `[Fe+2]` [Fe^2+], for which, in test [2], the KACT was >10 mM and the kcat turned out to be 0.012 ± 0.003 s^–1.

As to `CCC(C)[C@H](N)C(=O)Nc1ccc([N+](=O)[O-])cc1` (stereo partly shown) [Ile-pNA], in test [1], the Km turned out to be 100 ± 30 µM and the kcat is on record as 0.004 ± 0.000 s^–1.

On to `Cc1cc(=O)oc2cc(NC(=O)[C@H](N)CC(C)C)ccc12` [Leu-AMC], for which the “k3, best-fitted value” in test [3] (E + S = ES, S is Leu-AMC) stood at 2.3 ± 0.1 μM^–1 s^–1. Moreover, the “k-3, best-fitted value” in test [3] (E + S = ES, reverse, S is Leu-AMC) was 47.9 ± 0.6 s^–1. Besides, in test [3] (EP = E + P), the “k5, best-fitted value” turned out to be 13.4 ± 0.1 s^–1. For the same compound, the “k4, best-fitted value” in test [3] (ES = EP) is 6.3 ± 0.1 s^–1.

As to `CC(C)C[C@H](N)C(=O)Nc1ccc([N+](=O)[O-])cc1` [Leu-pNA, reference compound], the Km in test [1] came to 160 ± 10 µM. The kcat came to 0.254 ± 0.005 s^–1 in test [1]; 0.335 ± 0.004 in test [4] (H2O (0% PEG-8000), other saturating, in 1/s); 0.391 ± 0.008 in test [5]. Further, the “Slope (sucrose) on kcat” value in test [4] (sucrose as viscogen) came to 0.03 ± 0.01.

For `NCCCC[C@H](N)C(=O)Nc1ccc([N+](=O)[O-])cc1` [Lys-pNA], in test [1], the Km came to 280 ± 40 µM and the kcat was 0.039 ± 0.002 s^–1.

Regarding `CSCC[C@H](N)C(=O)Nc1ccc([N+](=O)[O-])cc1` [Met-pNA], in test [1], the Km amounted to 150 ± 20 µM and the kcat came out at 0.084 ± 0.003 s^–1.

Turning to `[Ni+2]` [Ni^2+], in test [2], the KACT is 2.5 ± 0.4 mM, the kcat is on record as 0.077 ± 0.003 s^–1 and the kcat/KACT is reported as 0.032 ± 0.005 s^–1mM^–1.

For the compound `N[C@@H](Cc1ccccc1)C(=O)Nc1ccc([N+](=O)[O-])cc1` [Phe-pNA], in test [1], the Km was 260 ± 50 µM and the kcat was found to be 0.115 ± 0.008 s^–1.

Take `O=C(Nc1ccc([N+](=O)[O-])cc1)[C@@H]1CCCN1` [Pro-pNA]: in test [1], the kcat worked out at 0.081 ± 0.003 s^–1. In test [1] (read-out: KM), the Km was found to be 1200 ± 80 µM.

As for `CC(C)[C@H](N)C(=O)Nc1ccc([N+](=O)[O-])cc1` [Val-pNA], in test [1], the Km stood at 50 ± 40 µM and the kcat is reported as 0.002 ± 0.001 s^–1.

As for “EKDIVGAVLK [tryptic peptide of yeast ADH (MassPREP digestion standard)]”, the “Cleaved?” value in test [6] is reported as “Not digested”.

As for “GVIFYESHGK [tryptic peptide of yeast ADH (MassPREP digestion standard)]”, the “Cleaved?” value in test [6] is “Digested (Peptides present in control samples but absent in reactions (integrated area <1000) were classified as “digested”)”.

On to “VLGIDGGEGK [tryptic peptide of yeast ADH (MassPREP digestion standard)]”, for which, in test [6], the “Cleaved?” value is on record as “Digested (Peptides present in control samples but absent in reactions (integrated area <1000) were classified as “digested”)”.

(Values after article PMC10666288, “Unveiling the Catalytic Mechanism of a Processive Metalloaminopeptidase” (Biochemistry, 2023).)
